Results from patent US10329289B2, “6,7-dihydro-5H-pyrrolo[3,4-B]pyridin-5-one allosteric modulators of the M4 muscarinic acetylcholine receptor” (Merck Sharp & Dohme Corp., priority 2015, dated 2019).
pEC50: −log10 of the molar value.

Target: T1, human M4 muscarinic acetylcholine receptor (Homo sapiens, UniProt P08173)
T1 construct: expressed in transfected cells; host or cells: CHO-K1
T1 sequence (P08173 1-479): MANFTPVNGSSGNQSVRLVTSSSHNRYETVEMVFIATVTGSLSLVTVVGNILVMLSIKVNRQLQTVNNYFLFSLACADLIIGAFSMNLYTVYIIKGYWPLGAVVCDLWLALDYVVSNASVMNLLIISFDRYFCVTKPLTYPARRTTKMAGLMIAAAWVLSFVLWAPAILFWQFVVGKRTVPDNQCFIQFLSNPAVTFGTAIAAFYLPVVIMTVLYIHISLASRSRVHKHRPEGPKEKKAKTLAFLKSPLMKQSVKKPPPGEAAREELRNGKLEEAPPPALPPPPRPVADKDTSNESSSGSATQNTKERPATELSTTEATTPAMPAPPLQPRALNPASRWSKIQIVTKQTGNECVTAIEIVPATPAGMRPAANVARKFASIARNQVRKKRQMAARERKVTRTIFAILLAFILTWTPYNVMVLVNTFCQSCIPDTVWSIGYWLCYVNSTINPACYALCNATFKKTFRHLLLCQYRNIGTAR
Test: human FLIPR-based M4 PAM assay (Ca2+ mobilization, CHO-K1 cells with human M4 receptor and Gαqi5)
Assay type: cell-based
Details: acetylcholine at 20% of maximum response, read-out: M4 PAM IP
Summary of the method: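 CHO-K1 cells stably expressing human M4 and chimeric Gαqi5 were dye-loaded ~1 h at 37 °C and read for Ca2+ fluorescence. Compound followed by acetylcholine at an EC20 (sometimes an EC70 third addition); inflection point from a 4-parameter logistic fit.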

Structure (SMILES) | pEC50
Cc1cc2c(nc1N1CC[C@@H](Oc3ccc4c(c3)COC4)[C@H](F)C1)[C@H](CO)N(C)C2=O [Example 279A, (R)-2-((3R,4R)-4-((1,3-dihydro-2-benzofuran-5-yl)oxy)-3-fluoropiperidin-1-yl)-7-(hydroxymethyl)-3,6-dimethyl-6,7-dihydro-5H-pyrrolo[3,4-b]pyridin-5-one] | 6.04
Cc1cc2c(nc1N1CC[C@@H](Oc3ccc4c(c3)COC4)[C@H](F)C1)[C@@H](CO)N(C)C2=O [Example 280A, (S)-2-((3R,4R)-4-((1,3-dihydro-2-benzofuran-5-yl)oxy)-3-fluoropiperidin-1-yl)-7-(hydroxymethyl)-3,6-dimethyl-6,7-dihydro-5H-pyrrolo[3,4-b]pyridin-5-one] | 7.85
COc1ccc(O[C@@H]2CCN(c3nc4c(cc3C)C(=O)N(C)[C@H]4CO)C[C@H]2F)cn1 [Example 281A, (R)-2-((3R,4R)-3-fluoro-4-((6-methoxypyridin-3-yl)oxy)piperidin-1-yl)-7-(hydroxymethyl)-3,6-dimethyl-6,7-dihydro-5H-pyrrolo[3,4-b]pyridin-5-one] | 5.09
Cc1cc2c(nc1N1CCC(Oc3ccc4c(c3)COC4)CC1)[C@H](CO)N(C)C2=O [Example 282, (R)-2-(4-((1,3-dihydro-2-benzofuran-5-yl)oxy)piperidin-1-yl)-7-(hydroxymethyl)-3,6-dimethyl-6,7-dihydro-5H-pyrrolo[3,4-b]pyridin-5-one] | 6.21
Cc1cc2c(nc1N1CC[C@@H](Oc3ccc4c(cnn4C)c3)[C@@H](F)C1)[C@H](CO)N(C)C2=O [Example 284, (R)-2-((3S,4R)-3-fluoro-4-((1-methyl-1H-indazol-5-yl)oxy)piperidin-1-yl)-7-(hydroxymethyl)-3,6-dimethyl-6,7-dihydro-5H-pyrrolo[3,4-b]pyridin-5-one] | 5.36
Cc1cc2c(nc1N1CCC(Oc3ccc4c(c3)CN(C)CC4)CC1)CNC2=O [Example 292, 3-methyl-2-(4-((2-methyl-1,2,3,4-tetrahydroisoquinolin-7-yl)oxy)piperidin-1-yl)-6,7-dihydro-5H-pyrrolo[3,4-b]pyridin-5-one] | 6.76
Cc1cc2c(nc1N1CCC(Oc3ccc4c(c3)OCCN4C)CC1)CNC2=O [Example 293, 3-methyl-2-(4-((4-methyl-3,4-dihydro-2H-benzo[b][1,4]oxazin-7-yl)oxy)piperidin-1-yl)-6,7-dihydro-5H-pyrrolo[3,4-b]pyridin-5-one] | 6.98
CC(=O)N1Cc2ccc(OC3CCN(c4nc5c(cc4C)C(=O)NC5)CC3)cc2C1 [Example 294, 2-(4-((2-Acetylisoindolin-5-yl)oxy)piperidin-1-yl)-3-methyl-6,7-dihydro-5H-pyrrolo[3,4-b]pyridin-5-one] | 6.69
CC(=O)N1CCc2ccc(OC3CCN(c4nc5c(cc4C)C(=O)NC5)CC3)cc2C1 [Example 295, 2-(4-((2-acetyl-1,2,3,4-tetrahydro-isoquinolin-7-yl)oxy)piperidin-1-yl)-3-methyl-6,7-dihydro-5H-pyrrolo[3,4-b] pyridin-5-one] | 6.86

More lines, in order of rising pEC50, values ahead:

pEC50 | Structure (SMILES)
5.06 | CCOc1ccc(OC2CCN(c3nc4c(cc3C)C(=O)N(C)[C@H]4CO)CC2)cn1 [Example 285, (R)-2-(4-((6-ethoxypyridin-3-yl)oxy)piperidin-1-yl)-7-(hydroxymethyl)-3,6-dimethyl-6,7-dihydro-5H-pyrrolo[3,4-b]pyridin-5-one]
5.75 | COc1ccc(OC2CCN(c3nc4c(cc3C)C(=O)NC4(C)C)CC2)cn1 [Example 288, 2-(4-((6-Methoxypyridin-3-yl)ox)piperidin-1-yl)-3,7,7-trimethyl-6,7-dihydro-5H-pyrrolo[3,4-b]pyridin-5-one]
6.36 | Cc1cc2c(nc1N1CCC(Oc3ccc(F)cc3)CC1)[C@H](CO)N(C)C2=O [Example 280, (R)-2-(4-(4-fluorophenoxy)piperidin-1-yl)-7-(hydroxymethyl)-3,6-dimethyl-6,7-dihydro-5H-pyrrolo[3,4-b]pyridin-5-one]
6.45 | Cc1cc2c(nc1N1CCC(Oc3ccc4c(c3)CN(C)C4)CC1)CNC2=O [Example 290, 3-Methyl-2-(4-((2-methylisoindolin-5-yl)oxy)piperidin-1-yl)-6,7-dihydro-5H-pyrrolo[3,4-b]pyridin-5-one]
6.69 | Cc1cc2c(nc1N1CCC(Oc3ccc4c(c3)CCCN4C)CC1)CNC2=O [Example 291, 3-methyl-2-(4-((1-methyl-1,2,3,4-tetrahydroquinolin-6-yl)oxy)piperidin-1-yl)-6,7-dihydro-5H-pyrrolo[3,4-b]pyridin-5-one]
6.81 | C=C1NC(=O)c2cc(C)c(N3CCC(Oc4ccc(OC)nc4)CC3)nc21 [Example 289, 2-(4-((6-Methoxypyridin-3-yl)oxy)piperidin-1-yl)-3-methyl-7-methylene-6,7-dihydro-5H-pyrrolo[3,4-b]pyridin-5-one]
7.08 | COc1ccc(OC2CCN(c3nc4c(cc3C)C(=O)N(Cc3ccncc3)C4=O)CC2)cn1 [Example 296, 2-(4-((6-Methoxypyridin-3-yl)oxy)piperidin-1-yl)-3-methyl-6-(pyridin-4-ylmethyl)-5H-pyrrolo[3,4-b]pyridine-5,7(6H)-dione]
7.36 | Cc1cc2c(nc1N1CC[C@@H](Oc3ccc4c(cnn4C)c3)[C@@H](F)C1)[C@@H](CO)N(C)C2=O [Example 283, (S)-2-((3S,4R)-3-fluoro-4-((1-methyl-1H-indazol-5-yl)oxy)piperidin-1-yl)-7-(hydroxymethyl)-3,6-dimethyl-6,7-dihydro-5H-pyrrolo[3,4-b]pyridin-5-one]
7.42 | COc1ccc(O[C@@H]2CCN(c3nc4c(cc3C)C(=O)N(C)[C@@H]4CO)C[C@H]2F)cn1 [Example 282A, (S)-2-((3R,4R)-3-fluoro-4-((6-methoxypyridin-3-yl)oxy)piperidin-1-yl)-7-(hydroxymethyl)-3,6-dimethyl-6,7-dihydro-5H-pyrrolo[3,4-b]pyridin-5-one]
7.42 | CCOc1ccc(OC2CCN(c3nc4c(cc3C)C(=O)N(C)[C@@H]4CO)CC2)cn1 [Example 286, (S)-2-(4-((6-ethoxypyridin-3-yl)oxy)piperidin-1-yl)-7-(hydroxymethyl)-3,6-dimethyl-6,7-dihydro-5H-pyrrolo[3,4-b]pyridin-5-one]
7.52 | Cc1cc2c(nc1N1CCC(Oc3ccc(F)cc3)CC1)[C@@H](CO)N(C)C2=O [Example 279, (S)-2-(4-(4-fluorophenoxy)piperidin-1-yl)-7-(hydroxymethyl)-3,6-dimethyl-6,7-dihydro-5H-pyrrolo[3,4-b]pyridin-5-one]
7.62 | COc1ccc(OC2CCN(c3nc4c(cc3C)C(=O)NC4O)CC2)cn1 (centres unmarked) [Example 298, 7-Hydroxy-2-(4-((6-methoxypyridin-3-yl)oxy)piperidin-1-yl)-3-methyl-6,7-dihydro-5H-pyrrolo[3,4-b]pyridin-5-one]
7.64 | Cc1cc2c(nc1N1CCC(Oc3ccc4c(c3)COC4)CC1)[C@@H](CO)N(C)C2=O [Example 281, (S)-2-(4-((1,3-dihydro-2-benzofuran-5-yl)oxy)piperidin-1-yl)-7-(hydroxymethyl)-3,6-dimethyl-6,7-dihydro-5H-pyrrolo[3,4-b]pyridin-5-one]
7.66 | COc1ccc(OC2CCN(c3nc4c(cc3C)C(=O)NC4=O)CC2)cn1 [Example 297, 2-(4-((6-Methoxypyridin-3-yl)oxy)piperidin-1-yl)-3-methyl-5H-pyrrolo[3,4-b]pyridine-5,7(6H)-dione]
